Patent US20250163104A1, “MACROCYCLIC IMMUNOMODULATORS” (priority 2021, published 2025)
Where a SMILES comes first, the peptide text is derived from it. Bridges are numbered along the chain shown (N, C = ends). [ ]: non-standard residue; d: D form. The star is where a group is joined. Bip = N[C@@H](Cc1ccc(-c2ccccc2)cc1)C(=O)O; Cha = N[C@@H](CC1CCCCC1)C(=O)O; Carboxymethyl = O=C(O)C*; Orn = NCCC[C@H](N)C(=O)O; Dab = NCC[C@H](N)C(=O)O; Dap = NC[C@H](N)C(=O)O

Target: T1, human PD-1 / PD-L1-Ig binding on Jurkat cell line over-expressing human PD-1 (Jurkat-PD-1) (Homo sapiens, UniProt Q15116)
T1 construct: expressed in transfected cells; host or cells: Jurkat
Assay: Jurkat-PD-1 Cell Binding High-Content Screening Assay (CBA)
Type: cell-based
Details: Jurkat-PD-1 cells, PE-labeled PD-L1-Ig 20 nM final; read-out: Jurkat HPD1_PDL1 IC50
In short: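 Jurkat cells over-expressing human PD-1, in DMEM/10% FCS, pre-incubated with compound 2 h at 37° C. PE-labeled human PD-L1-Ig (20 nM final) added for 1 h; cells fixed in paraformaldehyde with Hoechst 33342 nuclear stain, washed, and bound fluorescence quantified by high-content imaging.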

T1 sequence (Q15116 25-288): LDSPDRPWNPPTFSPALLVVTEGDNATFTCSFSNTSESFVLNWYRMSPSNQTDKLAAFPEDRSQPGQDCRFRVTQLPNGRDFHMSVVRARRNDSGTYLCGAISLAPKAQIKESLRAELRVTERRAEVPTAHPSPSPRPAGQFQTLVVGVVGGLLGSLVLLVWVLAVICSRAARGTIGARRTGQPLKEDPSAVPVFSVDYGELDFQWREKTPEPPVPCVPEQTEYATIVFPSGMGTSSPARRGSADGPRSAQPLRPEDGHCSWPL

Structure (SMILES)	IC50 [nM]
CC[C@H](C)[C@@H]1NC(=O)[C@H](Cc2ccc(-c3ccccc3)cc2)NC(=O)[C@H](C(C)C)NC(=O)[C@H](Cc2c[nH]c3ccccc23)NC(=O)[C@H](CC(=O)O)NC(=O)[C@H](Cc2ccc(O)cc2)NC(=O)[C@H](CC(N)=O)NC(=O)CSC[C@@H](C(=O)NCC(N)=O)NC(=O)[C@H]([C@@H](C)O)NC(=O)[C@H](C(C)C)NC(=O)[C@H](CC(C)C)NC(=O)[C@H](CCCCN)NC(=O)[C@@H](CC(C)C)NC(=O)[C@H](CCCN)NC1=O [Compound 1131] ({CH2CO}-NYDWV[Bip]I[Orn][dL]KLVTCG-NH2; thioether N-14)	24.8
CC(C)C[C@@H]1NC(=O)[C@H](CCCCN)NC(=O)[C@@H](CC(C)C)NC(=O)[C@H](CCCN)NC(=O)[C@H](C(C)C)NC(=O)[C@H](Cc2ccc(-c3ccccc3)cc2)NC(=O)[C@H](C(C)C)NC(=O)[C@H](Cc2c[nH]c3ccccc23)NC(=O)[C@H](CC(=O)O)NC(=O)[C@H](Cc2ccc(O)cc2)NC(=O)[C@H](CC(N)=O)NC(=O)CSC[C@@H](C(=O)N[C@@H](C)C(N)=O)NC(=O)[C@H](CO)NC(=O)[C@H](C(C)C)NC1=O [Compound 1132] ({CH2CO}-NYDWV[Bip]V[Orn][dL]KLVSCA-NH2; thioether N-14)	20.7
CC(C)C[C@@H]1NC(=O)[C@H](CCCCN)NC(=O)[C@@H](CC(C)C)NC(=O)[C@H](CCCN)NC(=O)[C@H](Cc2cnc[nH]2)NC(=O)[C@H](Cc2ccc(-c3ccccc3)cc2)NC(=O)[C@H](C(C)C)NC(=O)[C@H](Cc2c[nH]c3ccccc23)NC(=O)[C@H](CC(=O)O)NC(=O)[C@H](Cc2ccc(O)cc2)NC(=O)[C@H](CC(N)=O)NC(=O)CSC[C@@H](C(=O)N[C@@H](C)C(N)=O)NC(=O)[C@H]([C@@H](C)O)NC(=O)[C@H](C(C)C)NC1=O [Compound 1133] ({CH2CO}-NYDWV[Bip]H[Orn][dL]KLVTCA-NH2; thioether N-14)	33.1
CC(C)C[C@@H]1NC(=O)[C@H](CCCCN)NC(=O)[C@@H](CC(C)C)NC(=O)[C@H](CCCN)NC(=O)[C@H](Cc2cnc[nH]2)NC(=O)[C@H](Cc2ccc(-c3ccccc3)cc2)NC(=O)[C@H](C(C)C)NC(=O)[C@H](Cc2c[nH]c3ccccc23)NC(=O)[C@H](CC(=O)O)NC(=O)[C@H](Cc2ccc(O)cc2)NC(=O)[C@H](CC(N)=O)NC(=O)CSC[C@@H](C(=O)N[C@@H](C)C(N)=O)NC(=O)[C@H](CO)NC(=O)[C@H](C(C)C)NC1=O [Compound 1134] ({CH2CO}-NYDWV[Bip]H[Orn][dL]KLVSCA-NH2; thioether N-14)	32.1
CC(C)C[C@@H]1NC(=O)[C@H](CCCCN)NC(=O)[C@@H](CC(C)C)NC(=O)[C@H](CCCN)NC(=O)[C@H](Cc2cnc[nH]2)NC(=O)[C@H](Cc2ccc(-c3ccccc3)cc2)NC(=O)[C@H](C(C)C)NC(=O)[C@H](Cc2c[nH]c3ccccc23)NC(=O)[C@H](CC(=O)O)NC(=O)[C@H](Cc2ccc(O)cc2)NC(=O)[C@H](CC(N)=O)NC(=O)CSC[C@@H](C(=O)NCC(N)=O)NC(=O)[C@H](CO)NC(=O)[C@H](C(C)C)NC1=O [Compound 1135] ({CH2CO}-NYDWV[Bip]H[Orn][dL]KLVSCG-NH2; thioether N-14)	13
CC(C)C[C@@H]1NC(=O)[C@H](CCCCN)NC(=O)[C@@H](CC(C)C)NC(=O)[C@H](CCCN)NC(=O)[C@H](Cc2cnc[nH]2)NC(=O)[C@H](Cc2ccc(-c3ccccc3)cc2)NC(=O)[C@H](C(C)C)NC(=O)[C@H](Cc2c[nH]c3ccccc23)NC(=O)[C@H](CC(=O)O)NC(=O)[C@H](Cc2ccc(O)cc2)NC(=O)[C@H](CC(N)=O)NC(=O)CSC[C@@H](C(=O)NCC(N)=O)NC(=O)[C@H]([C@@H](C)O)NC(=O)[C@H](C(C)C)NC1=O [Compound 1136] ({CH2CO}-NYDWV[Bip]H[Orn][dL]KLVTCG-NH2; thioether N-14)	50.8
CC(C)C[C@@H]1NC(=O)[C@H](CCCCN)NC(=O)[C@@H](CC(C)C)NC(=O)[C@H](CCN)NC(=O)[C@H](Cc2cnc[nH]2)NC(=O)[C@H](Cc2ccc(-c3ccccc3)cc2)NC(=O)[C@H](C(C)C)NC(=O)[C@H](Cc2c[nH]c3ccccc23)NC(=O)[C@H](CC(=O)O)NC(=O)[C@H](Cc2ccc(O)cc2)NC(=O)[C@H](CC(N)=O)NC(=O)CSC[C@@H](C(=O)N[C@@H](C)C(N)=O)NC(=O)[C@H]([C@@H](C)O)NC(=O)[C@H](C(C)C)NC1=O [Compound 1137] ({CH2CO}-NYDWV[Bip]H[Dab][dL]KLVTCA-NH2; thioether N-14)	47
CC(C)C[C@@H]1NC(=O)[C@H](CCCCN)NC(=O)[C@@H](CC(C)C)NC(=O)[C@H](CCN)NC(=O)[C@H](Cc2cnc[nH]2)NC(=O)[C@H](Cc2ccc(-c3ccccc3)cc2)NC(=O)[C@H](C(C)C)NC(=O)[C@H](Cc2c[nH]c3ccccc23)NC(=O)[C@H](CC(=O)O)NC(=O)[C@H](Cc2ccc(O)cc2)NC(=O)[C@H](CC(N)=O)NC(=O)CSC[C@@H](C(=O)N[C@@H](C)C(N)=O)NC(=O)[C@H](CO)NC(=O)[C@H](C(C)C)NC1=O [Compound 1138] ({CH2CO}-NYDWV[Bip]H[Dab][dL]KLVSCA-NH2; thioether N-14)	19.3
CC(C)C[C@@H]1NC(=O)[C@H](CCCCN)NC(=O)[C@@H](CC(C)C)NC(=O)[C@H](CCN)NC(=O)[C@H](Cc2cnc[nH]2)NC(=O)[C@H](Cc2ccc(-c3ccccc3)cc2)NC(=O)[C@H](C(C)C)NC(=O)[C@H](Cc2c[nH]c3ccccc23)NC(=O)[C@H](CC(=O)O)NC(=O)[C@H](Cc2ccc(O)cc2)NC(=O)[C@H](CC(N)=O)NC(=O)CSC[C@@H](C(=O)NCC(N)=O)NC(=O)[C@H](CO)NC(=O)[C@H](C(C)C)NC1=O [Compound 1139] ({CH2CO}-NYDWV[Bip]H[Dab][dL]KLVSCG-NH2; thioether N-14)	44.4
CC(C)C[C@@H]1NC(=O)[C@H](CCCCN)NC(=O)[C@@H](CC(C)C)NC(=O)[C@H](CCN)NC(=O)[C@H](Cc2cnc[nH]2)NC(=O)[C@H](Cc2ccc(-c3ccccc3)cc2)NC(=O)[C@H](C(C)C)NC(=O)[C@H](Cc2c[nH]c3ccccc23)NC(=O)[C@H](CC(=O)O)NC(=O)[C@H](Cc2ccc(O)cc2)NC(=O)[C@H](CC(N)=O)NC(=O)CSC[C@@H](C(=O)NCC(N)=O)NC(=O)[C@H]([C@@H](C)O)NC(=O)[C@H](C(C)C)NC1=O [Compound 1140] ({CH2CO}-NYDWV[Bip]H[Dab][dL]KLVTCG-NH2; thioether N-14)	57.7
CC[C@H](C)[C@@H]1NC(=O)[C@H](Cc2ccc(-c3ccccc3)cc2)NC(=O)[C@H](C(C)C)NC(=O)[C@H](Cc2c[nH]c3ccccc23)NC(=O)[C@H](CC(=O)O)NC(=O)[C@H](Cc2ccc(O)cc2)NC(=O)[C@H](CN)NC(=O)CSC[C@@H](C(=O)N[C@@H](C)C(N)=O)NC(=O)[C@H]([C@@H](C)O)NC(=O)[C@H](C(C)C)NC(=O)[C@H](CC(C)C)NC(=O)[C@H](CCCNC(=N)N)NC(=O)[C@@H](CC(C)C)NC(=O)[C@H](CCCN)NC1=O [Compound 1141] ({CH2CO}-[Dap]YDWV[Bip]I[Orn][dL]RLVTCA-NH2; thioether N-14)	30.6
CC[C@H](C)[C@@H]1NC(=O)[C@H](Cc2ccc(-c3ccccc3)cc2)NC(=O)[C@H](C(C)C)NC(=O)[C@H](Cc2c[nH]c3ccccc23)NC(=O)[C@H](CC(=O)O)NC(=O)[C@H](Cc2ccc(O)cc2)NC(=O)[C@H](Cc2ccc(OCC(=O)O)cc2)NC(=O)CSC[C@@H](C(=O)N[C@@H](C)C(N)=O)NC(=O)[C@H]([C@@H](C)O)NC(=O)[C@H](C(C)C)NC(=O)[C@H](CC(C)C)NC(=O)[C@H](CCCNC(=N)N)NC(=O)[C@@H](CC(C)C)NC(=O)[C@H](CCCN)NC1=O [Compound 1142] ({CH2CO}-Y(Carboxymethyl)YDWV[Bip]I[Orn][dL]RLVTCA-NH2; thioether N-14)	19.6
CC[C@H](C)[C@@H]1NC(=O)[C@H](Cc2ccc(-c3ccccc3)cc2)NC(=O)[C@H](C(C)C)NC(=O)[C@H](Cc2c[nH]c3ccccc23)NC(=O)[C@H](CC(=O)O)NC(=O)[C@H](Cc2ccc(O)cc2)NC(=O)[C@H](CC(N)=O)NC(=O)CSC[C@@H](C(=O)N[C@@H](C)C(N)=O)NC(=O)[C@H]([C@@H](C)O)NC(=O)[C@H](C(C)C)NC(=O)[C@H](CC(C)C)NC(=O)[C@H](CCCNC(=N)N)NC(=O)[C@@H](CC(C)C)NC(=O)[C@H](CCCN)NC1=O [Compound 1143] ({CH2CO}-NYDWV[Bip]I[Orn][dL]RLVTCA-NH2; thioether N-14)	15.8
CC[C@H](C)[C@@H]1NC(=O)[C@H](Cc2ccc(-c3ccccc3)cc2)NC(=O)[C@H](C(C)C)NC(=O)[C@H](Cc2c[nH]c3ccccc23)NC(=O)[C@H](CC(=O)O)NC(=O)[C@H](Cc2ccc(O)cc2)NC(=O)[C@H](Cc2ccccc2)NC(=O)CSC[C@@H](C(=O)N[C@@H](C)C(N)=O)NC(=O)[C@H]([C@@H](C)O)NC(=O)[C@H](C(C)C)NC(=O)[C@H](CC(C)C)NC(=O)[C@H](CCCNC(=N)N)NC(=O)[C@@H](CC(C)C)NC(=O)[C@H](CCCN)NC1=O [Compound 1144] ({CH2CO}-FYDWV[Bip]I[Orn][dL]RLVTCA-NH2; thioether N-14)	19.2
CC[C@H](C)[C@@H]1NC(=O)[C@H](Cc2ccc(-c3ccccc3)cc2)NC(=O)[C@H](C(C)C)NC(=O)[C@H](Cc2c[nH]c3ccccc23)NC(=O)[C@H](CC(=O)O)NC(=O)[C@H](Cc2ccc(O)cc2)NC(=O)[C@H](CN)NC(=O)CSC[C@@H](C(=O)N[C@@H](C)C(N)=O)NC(=O)[C@H]([C@@H](C)O)NC(=O)[C@H](C(C)C)NC(=O)[C@H](CC2CCCCC2)NC(=O)[C@H](CCCNC(=N)N)NC(=O)[C@@H](CC(C)C)NC(=O)[C@H](CCCN)NC1=O [Compound 1145] ({CH2CO}-[Dap]YDWV[Bip]I[Orn][dL]R[Cha]VTCA-NH2; thioether N-14)	8.7
CC[C@H](C)[C@@H]1NC(=O)[C@H](Cc2ccc(-c3ccccc3)cc2)NC(=O)[C@H](C(C)C)NC(=O)[C@H](Cc2c[nH]c3ccccc23)NC(=O)[C@H](CC(=O)O)NC(=O)[C@H](Cc2ccc(O)cc2)NC(=O)[C@H](Cc2ccc(OCC(=O)O)cc2)NC(=O)CSC[C@@H](C(=O)N[C@@H](C)C(N)=O)NC(=O)[C@H]([C@@H](C)O)NC(=O)[C@H](C(C)C)NC(=O)[C@H](CC2CCCCC2)NC(=O)[C@H](CCCNC(=N)N)NC(=O)[C@@H](CC(C)C)NC(=O)[C@H](CCCN)NC1=O [Compound 1146] ({CH2CO}-Y(Carboxymethyl)YDWV[Bip]I[Orn][dL]R[Cha]VTCA-NH2; thioether N-14)	42.3
